From patent US20230085307A1, “PYRIDAZINONE COMPOUND AND HERBICIDE” (NISSAN CHEMICAL CORPORATION, priority 2019, published 2023)

Legend:
barnyard grass [1] = assay: Test Example 3: herbicidal effect by foliage application, Wagner pot (Table 18, symbol H); assay type: in vivo, barnyard grass (Echinochloa crus-galli)
How it was run: (§1)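 Plants were sown in alluvial soil held under 0.1–0.5 cm standing water and grown 14 days in a greenhouse at 25–30 °C. An emulsifiable formulation, water-diluted to the set dose, was then sprayed onto the foliage, and effects were scored three weeks later using previously defined criteria.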

Chinese sprangletop = assay: Test Example 3: herbicidal effect by foliage application, Wagner pot (Table 18, symbol D); assay type: in vivo, chinese sprangletop (Leptochloa chinensis)
How it was run: as §1

rice flat sedge = assay: Test Example 3: herbicidal effect by foliage application, Wagner pot (Table 18, symbol E); assay type: in vivo, rice flat sedge (Cyperus iria)
How it was run: as §1

southern crabgrass [2] = assay: Test Example 4: herbicidal effect by soil treatment (Table 19, symbol F); assay type: in vivo, southern crabgrass (Digitaria ciliaris); settings: amount of applied herbicide 320 g/ha
How it was run: (§2)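 Seeds were sown in sterilized diluvial soil and covered with about 1.5 cm of soil. An emulsion formulation diluted with water to a predetermined herbicide amount was sprayed evenly onto the soil surface. Plants grew in a greenhouse at 25° C. to 30° C., and the effect was scored three weeks after application using criteria from an earlier test.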

green foxtail [3] = assay: Test Example 4: herbicidal effect by soil treatment (Table 19, symbol G); assay type: in vivo, green foxtail (Setaria viridis); settings: amount of applied herbicide 320 g/ha
How it was run: as §2

barnyard grass [4] = assay: Test Example 4: herbicidal effect by soil treatment (Table 19, symbol H); assay type: in vivo, barnyard grass (Echinochloa crus-galli); settings: amount of applied herbicide 320 g/ha
How it was run: as §2

wild oat [5] = assay: Test Example 4: herbicidal effect by soil treatment (Table 19, symbol I); assay type: in vivo, wild oat (Avena fatua); settings: amount of applied herbicide 320 g/ha
How it was run: as §2

blackgrass [6] = assay: Test Example 4: herbicidal effect by soil treatment (Table 19, symbol J); assay type: in vivo, blackgrass (Alopecurus myosuroides); settings: amount of applied herbicide 320 g/ha
How it was run: as §2

Italian ryegrass [7] = assay: Test Example 4: herbicidal effect by soil treatment (Table 19, symbol K); assay type: in vivo, Italian ryegrass (Lolium multiflorum); settings: amount of applied herbicide 320 g/ha
How it was run: as §2

windgrass [8] = assay: Test Example 4: herbicidal effect by soil treatment (Table 19, symbol L); assay type: in vivo, windgrass (Apera spica-venti); settings: amount of applied herbicide 320 g/ha
How it was run: as §2

velvetleaf [9] = assay: Test Example 4: herbicidal effect by soil treatment (Table 19, symbol M); assay type: in vivo, velvetleaf (Abutilon theophrasti); settings: amount of applied herbicide 320 g/ha
How it was run: as §2

redroot pigweed [10] = assay: Test Example 4: herbicidal effect by soil treatment (Table 19, symbol N); assay type: in vivo, redroot pigweed (Amaranthus retroflexus); settings: amount of applied herbicide 320 g/ha
How it was run: as §2

lambsquarters [11] = assay: Test Example 4: herbicidal effect by soil treatment (Table 19, symbol O); assay type: in vivo, lambsquarters (Chenopodium album); settings: amount of applied herbicide 320 g/ha
How it was run: as §2

chickweed [12] = assay: Test Example 4: herbicidal effect by soil treatment (Table 19, symbol P); assay type: in vivo, common chickweed (Stellaria media); settings: amount of applied herbicide 320 g/ha
How it was run: as §2

false cleavers [13] = assay: Test Example 4: herbicidal effect by soil treatment (Table 19, symbol Q); assay type: in vivo, false cleavers (Galium spurium); settings: amount of applied herbicide 320 g/ha
How it was run: as §2

persian speedwell [14] = assay: Test Example 4: herbicidal effect by soil treatment (Table 19, symbol R); assay type: in vivo, Persian speedwell (Veronica persica); settings: amount of applied herbicide 320 g/ha
How it was run: as §2

southern crabgrass [15] = assay: Test Example 5: herbicidal effect by foliage application, plastic box (Table 20, symbol F); assay type: in vivo, southern crabgrass (Digitaria ciliaris); settings: foliage application
How it was run: (§3)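 Plants sown in sterilized diluvial soil and grown 14 days in a greenhouse at 25° C to 30° C, then sprayed on the foliage with the compound's emulsion diluted in water to a predetermined herbicide amount. Injury to weeds and crops scored three weeks after application on a visual rating scale.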

green foxtail [16] = assay: Test Example 5: herbicidal effect by foliage application, plastic box (Table 20, symbol G); assay type: in vivo, green foxtail (Setaria viridis); settings: foliage application
How it was run: as §3

barnyard grass [17] = assay: Test Example 5: herbicidal effect by foliage application, plastic box (Table 20, symbol H); assay type: in vivo, barnyard grass (Echinochloa crus-galli); settings: foliage application
How it was run: as §3

wild oat [18] = assay: Test Example 5: herbicidal effect by foliage application, plastic box (Table 20, symbol I); assay type: in vivo, wild oat (Avena fatua); settings: foliage application
How it was run: as §3

blackgrass [19] = assay: Test Example 5: herbicidal effect by foliage application, plastic box (Table 20, symbol J); assay type: in vivo, blackgrass (Alopecurus myosuroides); settings: foliage application
How it was run: as §3

Italian ryegrass [20] = assay: Test Example 5: herbicidal effect by foliage application, plastic box (Table 20, symbol K); assay type: in vivo, Italian ryegrass (Lolium multiflorum); settings: foliage application
How it was run: as §3

windgrass [21] = assay: Test Example 5: herbicidal effect by foliage application, plastic box (Table 20, symbol L); assay type: in vivo, windgrass (Apera spica-venti); settings: foliage application
How it was run: as §3

velvetleaf [22] = assay: Test Example 5: herbicidal effect by foliage application, plastic box (Table 20, symbol M); assay type: in vivo, velvetleaf (Abutilon theophrasti); settings: foliage application
How it was run: as §3

redroot pigweed [23] = assay: Test Example 5: herbicidal effect by foliage application, plastic box (Table 20, symbol N); assay type: in vivo, redroot pigweed (Amaranthus retroflexus); settings: foliage application
How it was run: as §3

lambsquarters [24] = assay: Test Example 5: herbicidal effect by foliage application, plastic box (Table 20, symbol O); assay type: in vivo, lambsquarters (Chenopodium album); settings: foliage application
How it was run: as §3

chickweed [25] = assay: Test Example 5: herbicidal effect by foliage application, plastic box (Table 20, symbol P); assay type: in vivo, common chickweed (Stellaria media); settings: foliage application
How it was run: as §3

false cleavers [26] = assay: Test Example 5: herbicidal effect by foliage application, plastic box (Table 20, symbol Q); assay type: in vivo, false cleavers (Galium spurium); settings: foliage application
How it was run: as §3

persian speedwell [27] = assay: Test Example 5: herbicidal effect by foliage application, plastic box (Table 20, symbol R); assay type: in vivo, Persian speedwell (Veronica persica); settings: foliage application
How it was run: as §3

[28] = AAH 320 g/ha, three weeks after application
[29] = amount of applied herbicide 320 g/ha
[30] = 320 g/ha, evaluated three weeks after application

SMILES: CCCC(=O)Oc1c(C)nn(C)c(=O)c1-c1c(-c2ccc3c(c2)OC(F)(F)O3)sc2ccccc12 [1-100]
- herbicidal effect on H (barnyard grass), rating 0-5 (barnyard grass [1]; 320 g/ha): 0 (Herbicidal rate of 5% or less (almost no effect))
- herbicidal effect on D (Chinese sprangletop), rating 0-5 (Chinese sprangletop; 320 g/ha): 0 (Herbicidal rate of 5% or less (almost no effect))
- herbicidal effect on E (rice flat sedge), rating 0-5 (rice flat sedge; 320 g/ha): 4 (Herbicidal rate of 70% or more and less than 90%)
- herbicidal effect rating, F: southern crabgrass (southern crabgrass [2]): 0 (Herbicidal rate of 5% or less (almost no effect))
- herbicidal effect rating, G: green foxtail (green foxtail [3]): 0 (Herbicidal rate of 5% or less (almost no effect))
- herbicidal effect rating, H: barnyard grass (barnyard grass [4]): 0 (Herbicidal rate of 5% or less (almost no effect))
- herbicidal effect rating, I: wild oat (wild oat [5]): 0 (Herbicidal rate of 5% or less (almost no effect))
- herbicidal effect rating, J: blackgrass (blackgrass [6]): 0 (Herbicidal rate of 5% or less (almost no effect))
- herbicidal effect rating, K: Italian ryegrass (Italian ryegrass [7]): 3 (Herbicidal rate of 40% or more and less than 70%)
- herbicidal effect rating, L: windgrass (windgrass [8]): 0 (Herbicidal rate of 5% or less (almost no effect))
- herbicidal effect rating, M: velvetleaf (velvetleaf [9]): 0 (Herbicidal rate of 5% or less (almost no effect))
- herbicidal effect rating, N: redroot pigweed (redroot pigweed [10]): 0 (Herbicidal rate of 5% or less (almost no effect))
- herbicidal effect rating, O: lambsquarters (lambsquarters [11]): 0 (Herbicidal rate of 5% or less (almost no effect))
- herbicidal effect rating, P: chickweed (chickweed [12]): 2 (Herbicidal rate of 20% or more and less than 40%)
- herbicidal effect rating, Q: false cleavers (false cleavers [13]): 2 (Herbicidal rate of 20% or more and less than 40%)
- herbicidal effect rating, R: persian speedwell (persian speedwell [14]): 5 (Herbicidal rate of 90% or more (almost completely withered))
- F: southern crabgrass, herbicidal effect (southern crabgrass [15]; [28]): 0 (Herbicidal rate of 5% or less (almost no effect))
- G: green foxtail, herbicidal effect (green foxtail [16]; [28]): 0 (Herbicidal rate of 5% or less (almost no effect))
- H: barnyard grass, herbicidal effect (barnyard grass [17]; [28]): 0 (Herbicidal rate of 5% or less (almost no effect))
- I: wild oat, herbicidal effect (wild oat [18]; [28]): 1 (Herbicidal rate of 5% or more and less than 20%)
- J: blackgrass, herbicidal effect (blackgrass [19]; [28]): 0 (Herbicidal rate of 5% or less (almost no effect))
- K: Italian ryegrass, herbicidal effect (Italian ryegrass [20]; [28]): 1 (Herbicidal rate of 5% or more and less than 20%)
- L: windgrass, herbicidal effect (windgrass [21]; [28]): 0 (Herbicidal rate of 5% or less (almost no effect))
- M: velvetleaf, herbicidal effect (velvetleaf [22]; [28]): 3 (Herbicidal rate of 40% or more and less than 70%)
- N: redroot pigweed, herbicidal effect (redroot pigweed [23]; [28]): 0 (Herbicidal rate of 5% or less (almost no effect))
- O: lambsquarters, herbicidal effect (lambsquarters [24]; [28]): 0 (Herbicidal rate of 5% or less (almost no effect))
- P: chickweed, herbicidal effect (chickweed [25]; [28]): 5 (Herbicidal rate of 90% or more (almost completely withered))
- Q: false cleavers, herbicidal effect (false cleavers [26]; [28]): 3 (Herbicidal rate of 40% or more and less than 70%)
- R: persian speedwell, herbicidal effect (persian speedwell [27]; [28]): 5 (Herbicidal rate of 90% or more (almost completely withered))

SMILES: CCCCOc1ccc(-c2sc3ccc(Cl)cc3c2-c2c(OC(=O)CCC)c(C)nn(C)c2=O)cc1 [2-110]
- herbicidal effect on H: barnyard grass (barnyard grass [1]; [29]): 4 (Herbicidal rate of 70% or more and less than 90%)
- herbicidal effect on D: Chinese sprangletop (Chinese sprangletop; [29]): 4 (Herbicidal rate of 70% or more and less than 90%)
- herbicidal effect on E: rice flat sedge (rice flat sedge; [29]): 4 (Herbicidal rate of 70% or more and less than 90%)
- F: southern crabgrass, herbicidal effect rating (southern crabgrass [2]): 0 (Herbicidal rate of 5% or less (almost no effect))
- G: green foxtail, herbicidal effect rating (green foxtail [3]): 0 (Herbicidal rate of 5% or less (almost no effect))
- H: barnyard grass, herbicidal effect rating (barnyard grass [4]): 0 (Herbicidal rate of 5% or less (almost no effect))
- I: wild oat, herbicidal effect rating (wild oat [5]): 0 (Herbicidal rate of 5% or less (almost no effect))
- J: blackgrass, herbicidal effect rating (blackgrass [6]): 0 (Herbicidal rate of 5% or less (almost no effect))
- K: Italian ryegrass, herbicidal effect rating (Italian ryegrass [7]): 0 (Herbicidal rate of 5% or less (almost no effect))
- L: windgrass, herbicidal effect rating (windgrass [8]): 0 (Herbicidal rate of 5% or less (almost no effect))
- M: velvetleaf, herbicidal effect rating (velvetleaf [9]): 0 (Herbicidal rate of 5% or less (almost no effect))
- N: redroot pigweed, herbicidal effect rating (redroot pigweed [10]): 0 (Herbicidal rate of 5% or less (almost no effect))
- O: lambsquarters, herbicidal effect rating (lambsquarters [11]): 0 (Herbicidal rate of 5% or less (almost no effect))
- P: chickweed, herbicidal effect rating (chickweed [12]): 0 (Herbicidal rate of 5% or less (almost no effect))
- Q: false cleavers, herbicidal effect rating (false cleavers [13]): 0 (Herbicidal rate of 5% or less (almost no effect))
- R: persian speedwell, herbicidal effect rating (persian speedwell [14]): 2 (Herbicidal rate of 20% or more and less than 40%)
- herbicidal effect on F: southern crabgrass (southern crabgrass [15]; [30]): 0 (Herbicidal rate of 5% or less (almost no effect))
- herbicidal effect on G: green foxtail (green foxtail [16]; [30]): 0 (Herbicidal rate of 5% or less (almost no effect))
- herbicidal effect on H: barnyard grass (barnyard grass [17]; [30]): 0 (Herbicidal rate of 5% or less (almost no effect))
- herbicidal effect on I: wild oat (wild oat [18]; [30]): 0 (Herbicidal rate of 5% or less (almost no effect))
- herbicidal effect on J: blackgrass (blackgrass [19]; [30]): 0 (Herbicidal rate of 5% or less (almost no effect))
- herbicidal effect on K: Italian ryegrass (Italian ryegrass [20]; [30]): 0 (Herbicidal rate of 5% or less (almost no effect))
- herbicidal effect on L: windgrass (windgrass [21]; [30]): 0 (Herbicidal rate of 5% or less (almost no effect))
- herbicidal effect on M: velvetleaf (velvetleaf [22]; [30]): 3 (Herbicidal rate of 40% or more and less than 70%)
- herbicidal effect on N: redroot pigweed (redroot pigweed [23]; [30]): 4 (Herbicidal rate of 70% or more and less than 90%)
- herbicidal effect on O: lambsquarters (lambsquarters [24]; [30]): 3 (Herbicidal rate of 40% or more and less than 70%)
- herbicidal effect on P: chickweed (chickweed [25]; [30]): 2 (Herbicidal rate of 20% or more and less than 40%)
- herbicidal effect on Q: false cleavers (false cleavers [26]; [30]): 3 (Herbicidal rate of 40% or more and less than 70%)
- herbicidal effect on R: persian speedwell (persian speedwell [27]; [30]): 5 (Herbicidal rate of 90% or more (almost completely withered))
